From patent US20070110734A9, “Methods and compositions using cellular asialodeterminants and glycoconjugates for targeting cells to tissues and organs” (Department of Veterans Affairs, Rehabilitation R&D Service, priority 2002, published 2007)

How the values were obtained:
[1] = test system: K562 (NK/LAK-sensitive target); test: Cytotoxic capacity of IL-2 activated NK effectors in 51Cr-release assay on K562; format: cell-based, human
Procedure: (§1) This experiment is the same as above, except that the adherence to monolayers was performed at 23° C. and not 4° C., for 2 hours. Two monolayers were used: HEPG2, an ASGPR+ cell line, and CAKI-2 (human renal cell carcinoma), an ASGPR− cell line. The effector cell populations that were used were: an untreated 3-day old LAK preparation (LAK) and the same population treated with Vibrio cholera neuraminidase (LAK/NS) (30 mU/1×10^7 cells/200 μl). The neuraminidase-treated population was the asialopositive lymphocyte control. All cell populations regardless of treatment were greater than 90% viable at the time of assay. Each type of effector population was incubated with media alone, 200 μg/ml ASF or F, as controls. All effectors were assayed on RAJI (LAK-sensitive target; NK-insensitive target) or K562 (NK/LAK-sensitive target); the E:T ratios and the graphic presentation are the same above.
(§2) Five-day LAK preparations (20 U/ml; 1 Dupont unit=44.5 BRMP units) grown in AIM-V (Gibco) were treated (according to the protocols in B. 1.2.3 & 1.2.4) with 3 OmU Vibric Cholera neuramindase, 0.48 mU 2,3-or 10 mu 2,6-silalyltransferase per 107 cells. Some of the effectors were incubated in media, 10% PBS in RPMJ 1640 at 23° C. for 2 hours. 2×107 effectors from the untreated LALK, neuramithdase-treated LAK, LAK treated with 2,3 or 2,6 were suspended in 15 ml media and placed onto either HEPG2 (ASGPR+) or CAKI-2 (ASGPR−) monolayers at 23° C. for 2 hours. The flasks were rocked every 15 minutes. The nonadherent cells from these monolayers were decanted and assayed against K562 and RAJI, in addition to the unadhered controls. The E:T ratios used were 40, 20, 10, and 5 to 1.

HEPG2 (ASGPR+) = test: Adherence of NK/LAK activity to HEPG2 monolayers at 23° C; format: cell-based, human
Procedure: as §1, §2

[2] = test system: RAJI (LAK-sensitive target; NK-insensitive target); test: Cytotoxic capacity of LAK effectors in 51Cr-release assay on RAJI; format: cell-based, human; settings: for LAK activity (killing of RAJI) after enzyme treatment of effector cell surface: enzyme-treated LAK cells
Procedure: Control cells (no IL-2 treatment) or LAK cells (IL-2-treated human peripheral blood lymphocytes cultured 10U IL-2/ml for 3 days) were adhered to a monolayer of HEP G2 cells for 2 hours at 4° C. The monolayer was pretreated either with asialofetuin (ASF, 200 μg/ml) in media or with fetuin (F, control, 200 μg/ml)) in media. After the Control or LAK cells had been incubated on the monolayer, these cells were then decanted, washed, and tested for cytotoxic capacity in a ^51Cr-release assay against the NK-resistant target, Raji.
as §1, §2

CAKI-2 (ASGPR−) = test: Adherence of NK/LAK activity to CAKI-2 monolayers at 23° C; format: cell-based, human
Procedure: as §1, §2

[3] = test system: human CD34+ (hCD34+) peripheral blood stem cells; test: In vivo trafficking of 111In-labeled human CD34+ stem cells (HSC) after glycoprotein infusion, gamma camera imaging; parameters: species or system NOD-SCID mice; settings: for organ localization of infused hematopoietic (CD34+) stem cells, in words: cells preceded by infusion of the protein, jugular vein, immunodeficient mice
Procedure: Intravenous cannulas were placed into the external jugular vein of NOD-SCID mice under anesthesia (Institutional Animal Care and Use Committee protocol #AM87046-07) to enable the efficient delivery of ^111In-labeled stem cells i.v. Tylenol elixir was administered by mouth after recovery from anesthesia. Briefly radiolabeled CD34+ cells were taken up in 100-250 ul of 5% human plasma albumin in saline and injected into the cannula and then flushed with 50 ul of the albumin-saline. The mice were imaged by nuclear medicine.
Mice: NOD-SCID, female mice (Nonobese diabetic/LtSz-scid/scid) were obtained from the Jackson Laboratory, Bar Harbor, Me. at 1-2 months of age. These animals were maintained in microisolator cages in a special isolator room. The air was HEPA filtered, and the animals were changed in a laminar flow hood within the facility. All food, bedding, and water was sterilized. […] See, e.g. Hogan, et al., Biology of Blood & Marrow Transplantation 3:236-246 (1997); Noort, et al., Bone Marrow Transplantation 22 Suppl 1:S58-60 (1998).
(§3) ^111Indium Oxine Labeling Procedure: ^111In-oxine labeling of adult human CD34+ or mesenchymal stem cells (hMSCs) was performed using a modification of the Amersham Healthcare Procedure for labeling autologous leukocytes.
(§4) Imaging procedures: Nuclear Medicine. NOD-SCID mice were anesthetized using rodent anesthesia cocktail. Once anesthetized, the mice were placed on a foam hemi-cylindrical mouse positioning device (MPD) and covered with a tube sock. The MPD allows better visual separation of the lungs and liver as compared to placing the mouse on a flat surface. The foam on which the mouse was placed, and the tube sock covering maintained a comfortable temperature permitting longer imaging without additional anesthesia. The MPD was placed on a narrow table between the dual heads of a Siemens E.Cam Gamma Camera and imaged statically or dynamically in 2-D or SPECT. ^57Co-Spot Marker is used to mark anatomic positions (nose, tail, cannula, etc.). The data was analyzed using a Siemens ICON system for regions of interest or percent of injected dose (e.g. liver, spleen, heart).
(§5) Gamma camera imaging using a Siemens E. Cam dual head gamma camera monitored the in vivo trafficking patterns of all human stem cells described in the following examples. Mice were placed on a Mouse Positioning Device (MPD) and placed between the detectors on the imaging platform.
5.75×10^6 111In-labeled human CD34+ (hCD34+) peripheral blood stem cells were administered intravenously (i.v.) via an external jugular vein cannula to 2 month old, NOD-SCID, female mice (Non-obese diabetic/LtSz-scid/scid) obtained from the Jackson Laboratory, Bar Harbor, Me. The radiolabeled CD34+ stem cells were administered after pretreatment of the mouse with 3.3 mg of asialoorosomucoid (ASO) i.v. The in vivo trafficking patterns were followed by gamma camera imaging using a Siemens E.Cam dual head gamma camera from immediately after injection up to 36 hr postinfusion. Human CD34+ were isolated from apheresis stem cell collection products derived from deceased cancer patients. They were purified to 95-99% purity using antibody conjugated to CD34 conjugated to magnetics beads (MACS) separation columns; Miltenyi Biotec, Auburn, Calif. and cryopreserved.
5.75×10^6 111In-labeled human CD34+ (hCD34+) peripheral blood stem cells were administered intravenously (i.v.) via an external jugular vein cannula to 2 month old, NOD-SCID, female mice (Non-obese diabetic/LtSz-scid/scid) obtained from the Jackson Laboratory, Bar Harbor, Me. The radiolabeled CD34+ stem cells were administered after pretreatment of the mouse with 5.5 mg of orosomucoid (O) i.v.
The preparation and procedures set forth in Example I were repeated. […]

[4] = test system: human mesenchymal stem cells (MSC); test: In vivo trafficking of 111In-labeled human mesenchymal stem cells (MSC) after glycoprotein infusion, gamma camera imaging; parameters: species or system NOD-SCID mice; settings: for % Infused Cells in Liver/Spleen: 0.56×10^6 MSC preceded by 4.3 mg ASO followed by 5.5 mg orosomucoid i.v.
Procedure: Human mesenchymal stem cells (hMSCs; PT-2501) obtained through a FDA monitored paid bone marrow donor program were purchased from Poietics Technologies, BioWhittaker (Walkerville, Md.). The cells were thawed according to manufacturer recommendations, resuspended, and radiolabeled in Mesenchymal Stem Cell Basal Medium (MSCBM).
as §3, §4, §5
MSC were obtained from BioWhittaker, (Poietics Division, cryopreserved PT-2501 >750,000 cells per ampoule) and labeled with ^111In as in previous examples, except that the MSC were labeled, washed, and injected in Basal Stem Cell Medium (Poietics) containing 5% human serum albumin (HSA). 0.56×10^6 111In labeled, human mesenchymal stem cells (MSC) were administered via an implanted Da Vinci Microport Vascular System cannula in the external jugular vein of a two-month old, female NOD-SCID mouse in 0.21 ml of basal stem cell medium containing 5% human serum albumin (HSA). Immediately prior to administration of MSC, 11.0 mg of orosomucoid was administered i.v. in 0.2 ml.
0.56×10^6 “In-labeled, MSC were administered i.v. in 0.21 ml of basal stem cell medium containing 5% human serum albumin (HSA). Prior to administration of MSC, 0.1 ml containing 4.3 mg of ASO, followed by 0.1 ml containing 5.5 mg orosomucoid were administered i.v. The ASO, orosomucoid and MSC were administered via an implanted Da Vinci Microport Vascular system cannula in the external jugular vein of a two-month old, female NOD-SCID mouse.

Caki-2 Targets = test: 51Cr-release assay of LAK effectors against CAKI-2 with agent added; format: cell-based, human; settings: for % 51Chromium Release from Caki-2 Targets: agent 250 μg per well, 5-day LAK, 4-hour incubation
Source text: A working hypothesis is that LAK/NK cells bind to HEPG2 via at least two receptors or recognition structures: 1) the ASGPR, which binds an asialodeterminant on the LAK/NK population and 2) the “LAK” or “NK” recognition structure for a target epitope. The first should be inhibitable by ASF; the second should not be. Binding to CAKI-2 (ASGPR−) should not be inhibited by ASF and is due to a LAK or NK recognition structure binding to the target epitope. This can be further supported by data derived from experiments (see below) in which 250 μg/well of ASF or F were added to the ^51Cr-release assay of LAK effectors against the labeled target CAKI-2.
(% SPECIFIC RELEASE was determined from quadruplicates whose raw counts per minute differed by less than 10 percent; the assay was a standard 4-hour incubation.)

Neuraminidase: Vibrio cholera neuraminidase used to treat LAK cells and generate cell surface asialodeterminants
IL-2 activated NK (killing K562 targets) after enzyme treatment of effector cell surface ([1]; enzyme-treated LAK cells): does not enhance
adherence of LAK activity to HEPG2 (assayed on RAJI) after cell surface modification (HEPG2 (ASGPR+); 23° C for 2 hours): did not
LAK activity (killing of RAJI) after enzyme treatment of effector cell surface [2]: enhances
LAK activity (killing of RAJI) after enzyme treatment of effector cell surface ([2]; listed as neuraminidase): significantly enhanced
adherence to CAKI-2 of IL-2 activated NK activity (assayed on K562) after cell surface modification (CAKI-2 (ASGPR−); 5-day LAK, 23° C for 2 hours): promotes adherence

asialoorosomucoid [ASO]
migration of CD34+ cells to the liver and spleen, in words ([3]; 5.75×10^6 HSC after 3.3 mg ASO i.v., early postinfusion images): did not migrate to the liver and spleen early
organ localization of infused hematopoietic (CD34+) stem cells, in words [3]: migrated immediately to the heart
organ localization of infused hematopoietic (CD34+) stem cells, in words ([3]; listed as asialoorosomucoid): predominantly localize in the heart
% Infused Cells in Liver/Spleen ([4]; 0 hr): 63 ± 5% at 0 hr
% Infused Cells in Liver/Spleen ([4]; 1 hr): 57 ± 7% at 1 hr
organ localization of infused mesenchymal stem cells, in words ([4]; cells preceded by infusion of the protein, jugular vein, immunodeficient mice): localize in the liver

fetuin [reference compound]
ability of effectors (LAK or LAK/NS) to kill K562 after preincubation with the protein ([1]; 200 μg/ml, 23° C): does not affect
inhibition of adherence to HEPG2 of LAK activity (assayed on RAJI) (HEPG2 (ASGPR+); 23° C, 200 μg/ml): could not be inhibited
inhibition of adherence of LAK activity of the neuraminidase-treated population to HEPG2 (HEPG2 (ASGPR+); 23° C, 200 μg/ml, assayed on RAJI): not
inhibition of adherence to HEPG2 of IL-2 activated NK (assayed on K562) (HEPG2 (ASGPR+); 23° C, with or without neuraminidase treatment, 200 μg/ml): not
% 51Chromium Release from Caki-2 Targets (Caki-2 Targets; E:T 5:1): 16%
% 51Chromium Release from Caki-2 Targets (Caki-2 Targets; E:T 10:1): 27%
% 51Chromium Release from Caki-2 Targets (Caki-2 Targets; E:T 20:1): 42%
% 51Chromium Release from Caki-2 Targets (Caki-2 Targets; E:T 40:1): 58%
blocking of LAK killing of the tumor target CAKI-2, in words (Caki-2 Targets; preincubation of targets and addition to the assay at 250 μg per well): does not block
activity of LAK or Control preparations incubated with the protein alone versus untreated LAK ([2]; 200 μg/ml for 2 h at 40C, no monolayer): identical activity
ability of effectors (LAK or LAK/NS) to kill RAJI after preincubation with the protein ([2]; 200 μg/ml, 23° C): does not affect
inhibition of adherence to CAKI-2 of IL-2 activated NK or LAK activity (CAKI-2 (ASGPR−); 23° C, 200 μg/ml): could not be inhibited
